Laboratory results published in US11541099B2, “Flounder surimi having antioxidant and antihypertensive effects and method of preparing the same” (Jeju National University Industry-Academic Cooperation …, priority 2017, dated 2023).
Converted amounts (≈) assume the structure as drawn. Residues, ends and D or L forms follow the SMILES beside them. No end group written: not given here.

Experiments:
[1] = Alkyl radical scavenging activity by ESR; conditions: peptides isolated from Fraction 2
Procedure: In order to identify the radical scavenging ability using ESR (electron spin resonance spectrometer, JES-FA ESR, JEOL, Japan), ESR equipment owned by the Center for University-Wide Research Facilities, Jeju University was used and was in accordance with a modified version of the method by Hiramoto (1993). 20 μL of a sample was mixed with 20 μL of distilled water, 20 μL of 40 mM AAPH and 20 μL of 40 mM POBN were added to the resulting mixture, the reaction was proceeded at 37° C. for 30 minutes and the reaction solution was transferred to a capillary tube. The conditions used for analysis were as follows: central field: 3475 G, modulation width: 0.2 mT, 22 amplitude: 500 mT, scan width: 10 mT, set microwave power: 8 mW.

[2] = target: T1, angiotensin I converting enzyme (ACE) (Oryctolagus cuniculus, UniProt P12822); assay: ACE inhibition activity (modified Cushman and Cheung's method); format: biochemical, rabbit; conditions: read-out: concentration inhibiting 50% of ACE (IC50) (converted)
T1 construct: The crude enzyme solution used herein was the supernatant obtained by centrifuging; tissue Sigma-Aldrich Co; host or cells: rabbit lung (acetone powder, crude extract supernatant)
T1 sequence (P12822 34-1310): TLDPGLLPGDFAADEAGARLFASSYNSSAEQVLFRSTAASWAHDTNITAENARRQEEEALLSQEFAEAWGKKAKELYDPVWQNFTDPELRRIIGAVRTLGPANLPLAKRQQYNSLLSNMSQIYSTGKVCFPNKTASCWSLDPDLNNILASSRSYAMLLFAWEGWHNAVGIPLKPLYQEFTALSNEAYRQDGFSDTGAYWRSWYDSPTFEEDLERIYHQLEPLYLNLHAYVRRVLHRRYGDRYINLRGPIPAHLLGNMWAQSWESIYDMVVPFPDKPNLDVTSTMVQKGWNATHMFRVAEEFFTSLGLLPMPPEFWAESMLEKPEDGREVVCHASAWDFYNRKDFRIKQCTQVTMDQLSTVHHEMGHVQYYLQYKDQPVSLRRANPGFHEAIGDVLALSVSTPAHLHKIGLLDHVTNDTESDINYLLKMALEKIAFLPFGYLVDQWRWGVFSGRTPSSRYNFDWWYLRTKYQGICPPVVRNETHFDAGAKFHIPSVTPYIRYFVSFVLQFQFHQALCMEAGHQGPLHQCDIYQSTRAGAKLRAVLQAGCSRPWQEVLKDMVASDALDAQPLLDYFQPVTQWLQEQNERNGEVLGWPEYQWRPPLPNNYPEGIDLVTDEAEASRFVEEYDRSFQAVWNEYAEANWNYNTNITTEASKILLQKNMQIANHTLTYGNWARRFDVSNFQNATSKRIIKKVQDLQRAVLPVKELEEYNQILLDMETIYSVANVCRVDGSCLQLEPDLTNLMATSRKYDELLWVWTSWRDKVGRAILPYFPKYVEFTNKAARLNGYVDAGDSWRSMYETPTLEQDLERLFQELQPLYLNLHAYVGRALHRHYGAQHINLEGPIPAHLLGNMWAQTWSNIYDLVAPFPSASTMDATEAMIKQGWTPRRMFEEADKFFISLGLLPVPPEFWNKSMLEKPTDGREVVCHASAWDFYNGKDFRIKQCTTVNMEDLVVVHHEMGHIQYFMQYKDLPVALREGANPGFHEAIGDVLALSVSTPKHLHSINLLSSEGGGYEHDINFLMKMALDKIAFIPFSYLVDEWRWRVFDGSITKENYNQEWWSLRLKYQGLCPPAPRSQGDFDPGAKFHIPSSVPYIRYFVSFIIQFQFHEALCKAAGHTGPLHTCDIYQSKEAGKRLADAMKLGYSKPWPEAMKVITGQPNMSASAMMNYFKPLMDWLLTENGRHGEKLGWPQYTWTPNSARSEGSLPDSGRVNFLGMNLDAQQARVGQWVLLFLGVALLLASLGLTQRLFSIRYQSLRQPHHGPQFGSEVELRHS
Procedure: ACE inhibition activity was measured by a modified version of Cushman and Cheung's method. The crude enzyme solution used herein was the supernatant obtained by centrifuging (4° C., 4,000 rpm, 40 min) after extracting a rabbit lung acetone powder (Sigma-Aldrich Co.) at a concentration of 0.2 g/10 mL (w/v) and at 4° C. for 24 hours. The substrate was prepared by dissolving hippurylhistidyl-leucine ([…], Sigma-Aldrich Co.) at a concentration of 5 mg/mL (w/v) in a 0.1 M sodium borate buffer (pH 8.3) containing 0.3 M NaCl.
ACE inhibition activity was determined as follows. 50 μL of an ACE enzyme solution was added to 50 μL of a sample extract, reaction was proceeded at 37° C. for 5 minutes, 50 μL of a substrate was added thereto and the reaction was proceeded at 37° C. for 1 hour. Then, 150 μL of 1N HCl was added to stop the reaction, 750 μL of ethyl acetate was added thereto, and the mixture was stirred for 1 minute and centrifuged (3,500 rpm, 10 min) to obtain 500 μL of the supernatant. The supernatant was completely dried at 105° C. for 4 hours, 2 mL of ethyl acetate was added thereto, and the absorbance was measured at 228 nm. A control group was obtained by adding 50 μL of distilled water, instead of the sample extract.

Row | IC50 value Alkyl radical scavenging activity [1] [µg/mL] | IC50 [2] [µM] | Compound
1 | 40 (≈ 80.7 µM) | 32.3 | NCCCC[C@H](NC(=O)[C@H](Cc1ccc(O)cc1)NC(=O)[C@@H](N)Cc1c[nH]c2ccccc12)C(=O)O [WYK, Trp-Tyr-Lys] (H-Trp-Tyr-Lys-OH; N-terminus and C-terminus assumed)
2 | 68 (≈ 136 µM) | 63.8 | CC[C@H](C)[C@H](N)C(=O)N[C@H](C(=O)N[C@@H](CC(=O)O)C(=O)N[C@@H](CCCNC(=N)N)C(=O)O)C(C)C [IVDR, Ile-Val-Asp-Arg] (H-IVDR-OH; N-terminus and C-terminus assumed)
3 | 77 | 117 | VASVI [VASVI, Val-Ala-Ser-Val-Ile]
